Results taken from US6448274B2, “Fluoroalkoxy-substituted benzamide dichloropyridinyl N-oxide PDE4 inhibitor” (Merck Frosst Canada & Co., priority 2000, dated 2002).
Where two headings read alike, the source gives them in different places.

Assays:
[1] = Plasma and brain concentrations at 60 minutes post-dosing; assay type: in vivo; settings: male, Sprague-Dawley, rat, ip, rats, 3 mg/kg i.p.; for Kp at 60 min: brain and plasma, n=5
Experimental: (§1) Compound I of the present invention was compared to Compound II by testing the for effects on the duration of anesthesia induced by the combination of xylazine and ketamine in rats. Male Sprague-Dawley rats were anaesthetised with a combination of xylazine (10 mg/kg) and ketamine (10 mg/kg) administered in a single intramuscular injection in the back hindlimb. Fifteen minutes later, the drug to be tested or its vehicle was injected intraperitoneally (dosing volume=1 ml/kg) and the animals were placed in dorsal recumbence. The compounds were dissolved immediately before use in polyethylene glycol (M.W. 200). The return of the righting reflex (i.e. when the animal no longer remained on its back and turned itself spontaneously to the prone position) was used as an endpoint to determine the duration of anaesthesia.
(§2) At the end of the experiment, at 60 minutes post-dosing, plasma and brain samples were taken for drug concentration determination.
However, the distribution to the brain was very different for each compound.

[2] = tested on: duration of anesthesia induced by the combination of xylazine and ketamine in rats; experiment: Effect on duration of anesthesia induced by xylazine and ketamine; assay type: in vivo, Male Sprague-Dawley rats; settings: 3 mg/kg i.p.; for Duration of anesthesia (min), Compound treated group: n = 5, mean ± S.E.M., return of righting reflex as endpoint; for Effect on duration of anaesthesia (in words): n=5
Experimental: as §1, §2

[3] = brain, n=5, read-out: Brain concentration
[4] = plasma, n=5, read-out: Plasma concentration

SMILES	Kp at 60 min [1]	concentration at 60 min [1, 3]	concentration at 60 min [1, 4]	Inhibition % (of duration of anesthesia vs vehicle treated group) [2]	Duration of anesthesia (min), Compound treated group [2]	Effect on duration of anaesthesia (in words) [2]
O=C(Nc1c(Cl)c[n+]([O-])cc1Cl)c1ccc(OC(F)F)c(OCC2CC2)c1 [Compound Formula I, N-(3,5-Dichloro-1-oxido-pyridin-4-yl)-4-difluoromethoxy-3-cyclopropylmethoxybenzamide]	0.0938	410 ± 150 nM	4370 ± 1650 nM	15.6%	37.40 ± 7.83 min	did not significantly modify the duration of anaesthesia
O=C(Nc1c(Cl)cncc1Cl)c1ccc(OC(F)F)c(OCC2CC2)c1 [Compound Formula II, N-(3,5-Dichloropyridin-4-yl)-4-difluoromethoxy-3-cyclopropylmethoxybenzamide]	0.75	150 ± 50 nM	200 ± 80 nM	54.7%	19.20 ± 4.68 min	significant reduction in the duration of the anaesthesia
